Source: US5112808A, “Alkylated hormone-releasing peptides and method of treatig mammals therewith” (American Cyanamid Company, priority 1988, dated 1992)
Where no end group is shown, it is not given here.

What was measured:
growth hormone release = experiment: Peptide effects on growth hormone release in the pentobarbital-anesthetized rat (plasma GH by RIA); assay type: in vivo
Method: In this evaluation, the procedures described by W. A. Murphy et al., Endocrinology 109: 491-495 (1980), were employed.
In growth hormone (GH) experiments, male rats (Charles Rivers) were anesthetized with NEMBUTAL® (6 mg per 100 g body weight) which also served to maintain stimulated plasma GH levels. Exactly 30 minutes after the rats were anesthetized, 0.5 mL of saline or the test peptide in saline was administered as a SC bolus. A 1 mL blood sample was drawn from the jugular vein 15 minutes after the injection of the peptide in saline or at the indicated times in the time course assay (p26). GH levels were determined using NIADDKD rat GH RIA components.

plasma growth hormone = experiment: Evaluation of peptides in vivo in sheep: plasma GH levels in lambs injected intravenously at 100 ng/kg; settings: for Plasma GH Peak / Plasma GH Post-inj Mean: 100 ng/kg IV; for Plasma GH Peak: control 12.2; for Plasma GH Post-inj Mean: two hours after treatment, means of 8 samples/animal from 8 animals, control 8.7; for Plasma GH Pre-inj Mean: before IV injection of 100 ng/kg, means of 5 samples/animal from 8 animals, control 8.4
Method: The purpose of this experiment is to compare the GH releasing activities of several GRF analogs selected for expected high potency and the lack of either a terminal amide or a D-amino acid. The analogs to be compared in wether lambs at 100 ng/kg (IV) are tri-isopropyl-GRF(1-29)-NH2, tri-isopropyl-GRF(1-29)-OH, tri-isopropyl-GRF(1-40)OH, D-ala^2, arg^12,21 -GRF (1-29)-OH, D-ala^2, arg^12,21 -GRF(1-29)-NH2, GRF(1-40)-OH and GRF(1-29)-NH2
A balanced 8×8 Latin square design will be used to test the following 8 treatments:
Sheep are maintained in individual metabolism cages at all times. Each sheep has previously received an indwelling jugular cannula which is flushed daily with heparinized (400-800 IU/ml) sterile saline to help maintain […].
All compounds are solubilized at 5 ug/ml in sterile saline containing 1% Tween 80 and injected intravenously at 100 ng/kg. Control lambs receive equal volumes of the vehicle only. The drugs are prepared each day just prior to injection to minimize sticking to the vials.
Blood is collected in heparinized tubes at 15 minute intervals for one hour prior to and for two hours after the treatments are administered. Plasma samples are removed by centrifugation and frozen.
Blood samples are taken from each animal at 15 minute intervals for 3 hours each day during the 8 day trial period. The samples are analyzed for plasma growth hormone (ng/ml). Data obtained are reported below as near values obtained for each treatment.

CC[C@H](C)[C@H](NC(=O)[C@H](C)NC(=O)[C@H](CC(=O)O)NC(=O)[C@H](C)NC(=O)[C@H](Cc1ccc(O)cc1)NC)C(=O)N[C@@H](Cc1ccccc1)C(=O)N[C@H](C(=O)N[C@@H](CC(N)=O)C(=O)N[C@@H](CO)C(=O)N[C@@H](Cc1ccc(O)cc1)C(=O)N[C@@H](CCCNC(=N)N)C(=O)N[C@@H](CCCCN)C(=O)N[C@H](C(=O)N[C@@H](CC(C)C)C(=O)NCC(=O)N[C@@H](CCC(N)=O)C(=O)N[C@@H](CC(C)C)C(=O)N[C@@H](CO)C(=O)N[C@@H](C)C(=O)N[C@@H](CCCNC(=N)N)C(=O)N[C@@H](CCCCN)C(=O)N[C@@H](CC(C)C)C(=O)N[C@@H](CC(C)C)C(=O)N[C@@H](CCC(N)=O)C(=O)N[C@@H](CC(=O)O)C(=O)N[C@H](C(=O)N[C@@H](CCSC)C(=O)N[C@@H](CO)C(=O)N[C@@H](CCCNC(=N)N)C(N)=O)[C@@H](C)CC)C(C)C)[C@@H](C)O [N^α MeTry^1, [N α-MeTyr^1]hpGRF(1-29)-NH2, reference compound]
PLASMA GH (growth hormone release; dose 30 ug/100 g BW SC, blood 15 min after injection, saline control 243 ± 25): 1843 ± 196 ng/mL
PLASMA GH (growth hormone release; dose 75 ug/100 g BW SC, blood 15 min after injection, saline control 243 ± 25): 2613 ± 418 ng/mL
POTENCY (growth hormone release; relative to GRF(1-29)NH2 (=1) as standard, by 4point assay (95% CI limits in parentheses)): 0.42

GRF(1-40)-OH (YADAIFTNSYRKVLGQLSARKLLQDIMSRQQGESNQERGA-OH; UniProt P01286 32-71, looked up, fragment) [unalkylated human GRF(1-40) free acid, comparator in the sheep test, reference compound]
Plasma GH Peak (plasma growth hormone): 92.3 ng/mL
Plasma GH Post-inj Mean (plasma growth hormone): 25.5 ng/mL
Plasma GH Pre-inj Mean (plasma growth hormone): 9.4 ng/mL

[N^α -Isopropyl-Tyr^1 ]GRF(1-29)NH2 [N^α iPrTyr^1]
PLASMA GH (growth hormone release; dose 0.2 ug/100 g BW SC, 15 min, saline control 325 ± 52): 1334 ± 394 ng/mL
PLASMA GH (growth hormone release; dose 2 ug/100 g BW SC, 15 min, saline control 325 ± 52): 3250 ± 362 ng/mL
PLASMA GH (growth hormone release; dose 20 ug/100 g BW SC, 15 min, saline control 325 ± 52): 3290 ± 241 ng/mL
POTENCY (growth hormone release; relative to GRF(1-29)NH2 (=1), estimated by single dose comparisons to pooled standard responses): ~ 60

[N ^α -Isopropyl-Tyr^1, N ^ε -isopropyl-Lys^12,21 ]GRF(1-40)OH [tri-isopropyl-GRF(1-40)-OH]
Plasma GH Peak (plasma growth hormone): 108.6 ng/mL
Plasma GH Post-inj Mean (plasma growth hormone): 34.0 ng/mL
Plasma GH Pre-inj Mean (plasma growth hormone): 9.5 ng/mL
